Measured values: patent US20170281611A1, “QUINOLINES AND THEIR USE FOR TREATING ENDOPLASMIC RETICULUM STRESS-CAUSED DISEASES” (EIGER BIOPHARMACEUTICALS, INC., priority 2014, published 2017)

What was measured:
Assay type in all cases: in vivo
[1] = test system: 6-OHDA lesioned Wistar rats; test: Rat unilateral 6-OHDA model of Parkinson's disease, initiation time (IT) test; settings: D11, L-DOPA 8 mg/kg with benserazide 12.5 mg/kg IP once; 6-OHDA/Vehicle 37.88±6.10 sec
Experimental: (§1) Fifty adult male Wistar rats were used. The rats from different groups (G1 to G5) were randomized. At the beginning of the study, the rats were about 5 weeks old and naive to previous administration of any drug.
(§2) A stereotaxic injection of 6-OHDA (G2 to G5) or saline (G1: sham group) was performed to induce a unilateral dopaminergic lesion on day 0 (D0). Surgery was performed on D0 under ketamine (50 mg/kg) and xylazine (10 mg/kg). The rats of G2 to G5 received a unilateral injection of 6-OHDA (6 μL) in the left substantia nigra pars compacta. Jouve et al., J. Neurosci. 2010, 30, 9919-9928. The rats of the G1 sham group were injected with saline. During surgery, local analgesia was achieved using subcutaneous injections of lidocaine. At the end of surgery, the rats were treated with buprenorphine (0.05 mg/kg, S.C.).
The IT test was performed both before the 6-OHDA lesion induction on D0 and on day 11 (D11) after the 6-OHDA lesion induction. Around six days (D−6) before the 6-OHDA lesion induction, the IT test was performed eight consecutive times for each limb of each rat to obtain baseline values. On D11, the IT test was performed one hour after the rats were dosed. For every test, only one of the two forelimbs of each rat was left free to move and the time that is necessary to initiate the movement toward a plane surface was recorded using 180 sec as break-off point. […]

[2] = test system: 6-OHDA lesioned Wistar rats; test: Rat unilateral 6-OHDA model of Parkinson's disease, stepping test; settings: D11, L-DOPA 8 mg/kg with benserazide 12.5 mg/kg IP once; 6-OHDA/Vehicle 1.19±0.24 steps
Experimental: as §1, §2
The stepping test was performed after IT test, both before the 6-OHDA lesion induction on D0 and on D11. Around D−6, the stepping test was performed eight consecutive times for the right paw of each animal to obtain baseline values. On D11, the stepping test was performed one hour after the rats were dosed. Each rat was hold by an experimenter and only one of the two forelimbs was left free to move above a plane surface and the other was held with the paw touching the table. The rats were then to be moved slowly forward by the experimenter. The number of adjusting steps was countered for the right paw. Olsson et al., J. Neurosci. 1995, 15, 3863-3875.
L-DOPA and benserazide (a peripheric DOPA decarboxylase inhibitor) were prepared together as a single solution containing 0.9% NaCl and 0.1% ascorbic acid.
All the dosings were given via the IP route, once daily, Sunday excluded.

[3] = test system: 6-OHDA lesioned Wistar rats; test: Rat unilateral 6-OHDA model of Parkinson's disease, cylinder test; settings: D11, L-DOPA 8 mg/kg with benserazide 12.5 mg/kg IP once; 6-OHDA/Vehicle 23.17±6.45
Experimental: as §1, §2
The cylinder test was performed only on D11, after completion of the IT and stepping tests, and 1.5 hours after the rats were dosed. The rats were placed in a Plexiglas cylinder and immediately videotaped for 15 min. During this time, the number of contacts made on the cylinder wall with the ipsilateral, contralateral, and two paws simultaneously (double contacts) were recorded and then expressed as a percentage of the total number of contacts. Lundblad et al., Eur. J. Neurosci. 2002, 15, 120-132; Jouve et al., J. Neurosci. 2010, 30, 9919-9928. […]

N[C@@H](Cc1ccc(O)c(O)c1)C(=O)O [L-DOPA, reference compound] was tested, and the initiation time [1] was 1.28 ± 0.21 s, the “number of adjusting steps” value [2] was 10.05±0.56 steps and the “percentage of double contacts” value [3] was 46.67±4.60 double contacts.
